Consider 1 compound from publication PMC4460186, “Fast and reliable production, purification and characterization of heat-stable, bifunctional enzyme chimeras” (AMB Express, 2015).

For one assay, the system named is T1, CB.
T1 construct: gene bgl1; single-polypeptide fusion HIS-Cel5A-Bgl1-STREP, Ser-Ser linker, tags kept; from E. coli M15[pREP4]; truncated STREP-tagged Bgl1 degradation products remain in eluate; with Endoglucanase
As to the kind of experiment: 4-nitrophenol release, absorbance at […] nm. Type of assay: biochemical, uncultured archaeon. The note with it: 10 mM NaPO4 pH 7.0, 80°C (standard assay); read-out: Substrate, 4-NP-β-D-GP / KM.

The next assay relates to T2, BC.
T2 construct: gene bgl1; single-polypeptide fusion HIS-Bgl1-Cel5A-STREP, Ser-Ser linker, tags kept; from E. coli M15[pREP4]; with Endoglucanase
In words: 4-nitrophenol release, absorbance at […] nm. Type of assay: biochemical, uncultured archaeon. The note with it: 10 mM NaPO4 pH 7.0, 80°C (standard assay); read-out: Substrate, 4-NP-β-D-GP / KM.

The structures appear in SMILES notation.

Regarding `O=[N+]([O-])c1ccc(O[C@@H]2O[C@H](CO)[C@@H](O)[C@H](O)[C@H]2O)cc1` [4-NP-β-D-GP, 4-nitrophenyl-β-D-glucopyranoside], the Km with CB and with BC was 530 µM throughout.
